Assay results: ChEMBL document CHEMBL1201861, “Genomics of Drug Sensitity in Cancer screening data, Wellcome Trust Sanger Institute”

Tests used:
Assay in all cases: cells
Details in all cases: Homo sapiens
MV4-11 = assay type: functional, cell-based, MV-4-11;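 further: cell viability readout measuring growth inhibition of human MV-4-11 cells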
Description: SANGER: Inhibition of human MV-4-11 cell growth in a cell viability assay.

TE-5 = assay type: functional, cell-based;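 further: inhibition of cell growth, read out by a cell viability assay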
Description: SANGER: Inhibition of human TE-5 cell growth in a cell viability assay.

ES6 = assay type: functional, cell-based;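 further: growth inhibition of human ES6 cells, read out with a cell viability assay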
Description: SANGER: Inhibition of human ES6 cell growth in a cell viability assay.

GR-ST = assay type: functional, cell-based
Description: SANGER: Inhibition of human GR-ST cell growth in a cell viability assay.

K5 = assay type: functional, cell-based
Description: SANGER: Inhibition of human K5 cell growth in a cell viability assay.

RKO = assay type: functional, cell-based;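 further: growth inhibition of human RKO cells, read out with a cell viability assay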
Description: SANGER: Inhibition of human RKO cell growth in a cell viability assay.

HDLM-2 = assay type: functional, cell-based;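 further: cell viability assay measuring suppression of HDLM-2 proliferation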
Description: SANGER: Inhibition of human HDLM-2 cell growth in a cell viability assay.

ES1 = assay type: functional, cell-based;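 further: growth inhibition of ES1 cells, read out with a cell viability assay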
Description: SANGER: Inhibition of human ES1 cell growth in a cell viability assay.

EW-13 = assay type: functional, cell-based;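 further: growth inhibition of EW-13 cells, read out with a cell viability assay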
Description: SANGER: Inhibition of human EW-13 cell growth in a cell viability assay.

TE-9 = assay type: functional, cell-based;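 further: cell growth inhibition, measured with a cell viability readout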
Description: SANGER: Inhibition of human TE-9 cell growth in a cell viability assay.

ACN = assay type: functional, cell-based;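 further: growth inhibition of the human ACN cell line, read out via cell viability testing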
Description: SANGER: Inhibition of human ACN cell growth in a cell viability assay.

JVM-3 = assay type: functional, cell-based;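 further: growth inhibition of human JVM-3 cells, read out with a cell viability assay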
Description: SANGER: Inhibition of human JVM-3 cell growth in a cell viability assay.

SK-MEL-1 = assay type: functional, cell-based;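 further: growth inhibition of human SK-MEL-1 cells, read out by a cell viability assay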
Description: SANGER: Inhibition of human SK-MEL-1 cell growth in a cell viability assay.

U-266 = assay type: functional, cell-based
Description: SANGER: Inhibition of human U-266 cell growth in a cell viability assay.

MS-1 = assay type: functional, cell-based;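 further: growth inhibition of MS-1 cells, read out by cell viability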
Description: SANGER: Inhibition of human MS-1 cell growth in a cell viability assay.

RPMI-8226 = assay type: functional, cell-based
Description: SANGER: Inhibition of human RPMI-8226 cell growth in a cell viability assay.

TE-11 = assay type: functional, cell-based;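 further: growth inhibition of human TE-11 cells, read out by a cell viability assay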
Description: SANGER: Inhibition of human TE-11 cell growth in a cell viability assay.

NB69 = assay type: functional, cell-based;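 further: growth inhibition of NB69 cells, determined by a cell viability assay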
Description: SANGER: Inhibition of human NB69 cell growth in a cell viability assay.

EW-16 = assay type: functional, cell-based;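 further: growth inhibition of human EW-16 cells, read out as cell viability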
Description: SANGER: Inhibition of human EW-16 cell growth in a cell viability assay.

GB-1 = assay type: functional, cell-based;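 further: growth of GB-1 cells judged by a viability assay, IC50 marks the concentration inhibiting growth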
Description: SANGER: Inhibition of human GB-1 cell growth in a cell viability assay.

LB1047-RCC = assay type: functional, cell-based;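 further: inhibition of cell growth, determined with a cell viability assay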
Description: SANGER: Inhibition of human LB1047-RCC cell growth in a cell viability assay.

LB771-HNC = assay type: functional, cell-based;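 further: growth inhibition of LB771-HNC human cells, read out with a cell viability assay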
Description: SANGER: Inhibition of human LB771-HNC cell growth in a cell viability assay.

CTB-1 = assay type: functional, cell-based
Description: SANGER: Inhibition of human CTB-1 cell growth in a cell viability assay.

ES3 = assay type: functional, cell-based;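 further: growth inhibition of ES3 cells, read out with a cell viability assay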
Description: SANGER: Inhibition of human ES3 cell growth in a cell viability assay.

MOLT-4 = assay type: functional, cell-based;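 further: growth inhibition of MOLT-4 cells, determined with a cell viability readout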
Description: SANGER: Inhibition of human MOLT-4 cell growth in a cell viability assay.

MZ7-mel = assay type: functional, cell-based;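 further: growth inhibition of human MZ7-mel cells, measured by a cell viability assay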
Description: SANGER: Inhibition of human MZ7-mel cell growth in a cell viability assay.

LB831-BLC = assay type: functional, cell-based;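 further: growth inhibition of LB831-BLC cells, read out with a cell viability assay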
Description: SANGER: Inhibition of human LB831-BLC cell growth in a cell viability assay.

C2BBe1 = assay type: functional, cell-based;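 further: growth inhibition of C2BBe1 cells, read out through a viability assay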
Description: SANGER: Inhibition of human C2BBe1 cell growth in a cell viability assay.

SW 954 = assay type: functional, cell-based;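 further: growth inhibition of SW954 human cancer cells, read out as cell viability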
Description: SANGER: Inhibition of human SW954 cell growth in a cell viability assay.

NCI-H1581 = assay type: functional, cell-based;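 further: cell growth inhibition read out by a viability assay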
Description: SANGER: Inhibition of human NCI-H1581 cell growth in a cell viability assay.

BB49-HNC = assay type: functional, cell-based;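 further: cell viability assay read-out, reported as inhibition of BB49-HNC cell growth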
Description: SANGER: Inhibition of human BB49-HNC cell growth in a cell viability assay.

LOX IMVI = assay type: functional, cell-based
Description: SANGER: Inhibition of human LOXIMVI cell growth in a cell viability assay.

HCE-4 = assay type: functional, cell-based;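 further: cell viability assay measuring inhibition of growth in the human HCE-4 cell line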
Description: SANGER: Inhibition of human HCE-4 cell growth in a cell viability assay.

SCC-15 = assay type: functional, cell-based;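 further: growth inhibition of SCC-15 cells, read out with a cell viability assay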
Description: SANGER: Inhibition of human SCC-15 cell growth in a cell viability assay.

MZ1-PC = assay type: functional, cell-based;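 further: cell viability assay measuring growth inhibition of human MZ1-PC cells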
Description: SANGER: Inhibition of human MZ1-PC cell growth in a cell viability assay.

JAR = assay type: functional, cell-based;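 further: growth inhibition of human JAR cells determined with a cell viability assay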
Description: SANGER: Inhibition of human JAR cell growth in a cell viability assay.

ES8 = assay type: functional, cell-based;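 further: growth inhibition of human ES8 cells, read out with a cell viability assay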
Description: SANGER: Inhibition of human ES8 cell growth in a cell viability assay.

KM12 = assay type: functional, cell-based;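 further: KM12 cell growth inhibition, read out with a cell viability assay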
Description: SANGER: Inhibition of human KM12 cell growth in a cell viability assay.

SBC-1 = assay type: functional, cell-based;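 further: cell viability assay measuring growth inhibition of the SBC-1 cell line, IC50 being the concentration that halves growth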
Description: SANGER: Inhibition of human SBC-1 cell growth in a cell viability assay.

DB = assay type: functional, cell-based
Description: SANGER: Inhibition of human DB cell growth in a cell viability assay.

KP-N-YS = assay type: functional, cell-based;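 further: cell viability assay measuring inhibition of cell line growth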
Description: SANGER: Inhibition of human KP-N-YS cell growth in a cell viability assay.

D283 Med = assay type: functional, cell-based
Description: SANGER: Inhibition of human D-283MED cell growth in a cell viability assay.

NCI-H209 = assay type: functional, cell-based;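 further: growth inhibition of human NCI-H209 cells, measured by a cell viability assay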
Description: SANGER: Inhibition of human NCI-H209 cell growth in a cell viability assay.

NCI-H1838 = assay type: functional, cell-based;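 further: growth inhibition of NCI-H1838 cells, determined with a cell viability readout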
Description: SANGER: Inhibition of human NCI-H1838 cell growth in a cell viability assay.

EW-3 = assay type: functional, cell-based;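 further: cell viability assay read-out, IC50 reflects inhibition of growth of the EW-3 cells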
Description: SANGER: Inhibition of human EW-3 cell growth in a cell viability assay.

SK-PN-DW = assay type: functional, cell-based;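 further: growth inhibition measured with a viability assay on these cells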
Description: SANGER: Inhibition of human SK-PN-DW cell growth in a cell viability assay.

TE-1 = assay type: functional, cell-based
Description: SANGER: Inhibition of human TE-1 cell growth in a cell viability assay.

NCI-H526 = assay type: functional, cell-based;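 further: growth inhibition of the human NCI-H526 cell line, measured by a cell viability assay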
Description: SANGER: Inhibition of human NCI-H526 cell growth in a cell viability assay.

TE-6 = assay type: functional, cell-based;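 further: growth inhibition of TE-6 cells, read out with a cell viability assay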
Description: SANGER: Inhibition of human TE-6 cell growth in a cell viability assay.

HEL = assay type: functional, cell-based;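 further: growth inhibition of HEL cells, read out with a cell viability assay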
Description: SANGER: Inhibition of human HEL cell growth in a cell viability assay.

MFH-ino = assay type: functional, cell-based;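 further: growth inhibition of human MFH-ino cells, read out by a cell viability assay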
Description: SANGER: Inhibition of human MFH-ino cell growth in a cell viability assay.

GI-1 = assay type: functional, cell-based;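 further: growth inhibition of human GI-1 cells, measured with a cell viability readout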
Description: SANGER: Inhibition of human GI-1 cell growth in a cell viability assay.

A388 = assay type: functional, cell-based;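 further: growth inhibition of human A388 cells, read out with a cell viability assay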
Description: SANGER: Inhibition of human A388 cell growth in a cell viability assay.

697 = assay type: functional, cell-based
Description: SANGER: Inhibition of human 697 cell growth in a cell viability assay.

KGN = assay type: functional, cell-based;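 further: growth inhibition of KGN cells, read out with a cell viability assay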
Description: SANGER: Inhibition of human KGN cell growth in a cell viability assay.

NMC-G1 = assay type: functional, cell-based;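 further: growth inhibition of the NMC-G1 cell line, measured with a cell viability read-out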
Description: SANGER: Inhibition of human NMC-G1 cell growth in a cell viability assay.

KG-1 = assay type: functional, cell-based;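 further: growth inhibition of KG-1 cells, read out by a cell viability assay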
Description: SANGER: Inhibition of human KG-1 cell growth in a cell viability assay.

MOLT-16 = assay type: functional, cell-based;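 further: growth inhibition of human MOLT-16 cells, read out with a cell viability assay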
Description: SANGER: Inhibition of human MOLT-16 cell growth in a cell viability assay.

LS-411N = assay type: functional, cell-based
CGTH-W-1 = assay type: functional, cell-based
Description: SANGER: Inhibition of human CGTH-W-1 cell growth in a cell viability assay.

NCI-H1355 = assay type: functional, cell-based
Description: SANGER: Inhibition of human NCI-H1355 cell growth in a cell viability assay.

COLO-684 = assay type: functional, cell-based
Description: SANGER: Inhibition of human COLO-684 cell growth in a cell viability assay.

COR-L88 = assay type: functional, cell-based
Description: SANGER: Inhibition of human COR-L88 cell growth in a cell viability assay.

A4-Fuk = assay type: functional, cell-based
Description: SANGER: Inhibition of human A4-Fuk cell growth in a cell viability assay.

J-RT3-T3-5 = assay type: functional, cell-based
Description: SANGER: Inhibition of human J-RT3-T3-5 cell growth in a cell viability assay.

NCI-H1648 = assay type: functional, cell-based
Description: SANGER: Inhibition of human NCI-H1648 cell growth in a cell viability assay.

C[C@]12O[C@H](C[C@]1(O)CO)n1c3ccccc3c3c4c(c5c6ccccc6n2c5c31)CNC4=O [LESTAURTINIB]
IC50 (MV4-11): < 7.81 nM | IC50 (TE-5): > 2000 nM | IC50 (ES6): > 2000 nM | IC50 (GR-ST): 494 nM | IC50 (K5): 145 nM | IC50 (RKO): 299 nM | IC50 (HDLM-2): > 2000 nM | IC50 (ES1): 95.3 nM | IC50 (EW-13): > 2000 nM | IC50 (TE-9): 415 nM | IC50 (ACN): 77.7 nM | IC50 (JVM-3): 29.2 nM | IC50 (SK-MEL-1): > 2000 nM | IC50 (U-266): 145 nM | IC50 (MS-1): > 2000 nM | IC50 (RPMI-8226): 386 nM | IC50 (TE-11): 609 nM | IC50 (NB69): 415 nM | IC50 (EW-16): 226 nM | IC50 (GB-1): 238 nM | IC50 (LB1047-RCC): 76.9 nM | IC50 (LB771-HNC): > 2000 nM | IC50 (CTB-1): 497 nM | IC50 (ES3): 125 nM | IC50 (MOLT-4): 70.2 nM | IC50 (MZ7-mel): 603 nM | IC50 (LB831-BLC): > 2000 nM | IC50 (C2BBe1): 361 nM | IC50 (SW 954): 291 nM | IC50 (NCI-H1581): 356 nM | IC50 (BB49-HNC): 1640 nM | IC50 (LOX IMVI): 298 nM | IC50 (HCE-4): > 2000 nM | IC50 (SCC-15): > 2000 nM | IC50 (MZ1-PC): > 2000 nM | IC50 (JAR): 9.94 nM | IC50 (ES8): 132 nM | IC50 (KM12): 37.8 nM | IC50 (SBC-1): 60.6 nM | IC50 (DB): 802 nM | IC50 (KP-N-YS): 713 nM | IC50 (D283 Med): 132 nM | IC50 (NCI-H209): 36.7 nM | IC50 (NCI-H1838): > 2 µM | IC50 (EW-3): 125 nM | IC50 (SK-PN-DW): 394 nM | IC50 (TE-1): 553 nM | IC50 (NCI-H526): > 2000 nM | IC50 (TE-6): > 2000 nM | IC50 (HEL): 204 nM | IC50 (MFH-ino): > 2000 nM | IC50 (GI-1): 546 nM | IC50 (A388): > 2000 nM | IC50 697: 26.5 nM | IC50 (KGN): 138 nM | IC50 (NMC-G1): 411 nM | IC50 (KG-1): 409 nM | IC50 (MOLT-16): 89.8 nM | IC50 (LS-411N): 322 nM | IC50 (CGTH-W-1): 43.6 nM | IC50 (NCI-H1355): > 2000 nM | IC50 (COLO-684): 853 nM | IC50 (COR-L88): > 2000 nM | IC50 (A4-Fuk): 82.7 nM | IC50 (J-RT3-T3-5): 365 nM | IC50 (NCI-H1648): > 2000 nM

Fc1cc(-c2cc[nH]/c(=N/c3ccc(-n4cnc(N5CCOCC5)n4)cc3)n2)cc(N2CCOCC2)c1
IC50 (MV4-11): 545 nM | IC50 (TE-5): 339 nM | IC50 (ES6): 406 nM | IC50 (GR-ST): 647 nM | IC50 (K5): 830 nM | IC50 (RKO): 117 nM | IC50 (HDLM-2): 721 nM | IC50 (ES1): 685 nM | IC50 (EW-13): 297 nM | IC50 (TE-9): 69.2 nM | IC50 (ACN): 78.6 nM | IC50 (JVM-3): > 5120 nM | IC50 (SK-MEL-1): 1330 nM | IC50 (U-266): 882 nM | IC50 (MS-1): 2630 nM | IC50 (RPMI-8226): 1030 nM | IC50 (TE-11): 2390 nM | IC50 (NB69): 1430 nM | IC50 (EW-16): 451 nM | IC50 (GB-1): 328 nM | IC50 (LB1047-RCC): 402 nM | IC50 (LB771-HNC): 77.7 nM | IC50 (CTB-1): 1110 nM | IC50 (ES3): 1090 nM | IC50 (MOLT-4): 716 nM | IC50 (MZ7-mel): 2900 nM | IC50 (LB831-BLC): 420 nM | IC50 (C2BBe1): 764 nM | IC50 (SW 954): 473 nM | IC50 (NCI-H1581): 1340 nM | IC50 (BB49-HNC): > 5120 nM | IC50 (LOX IMVI): 477 nM | IC50 (HCE-4): 903 nM | IC50 (SCC-15): 803 nM | IC50 (MZ1-PC): 195 nM | IC50 (JAR): 3300 nM | IC50 (ES8): 135 nM | IC50 (KM12): 212 nM | IC50 (SBC-1): > 5120 nM | IC50 (DB): 611 nM | IC50 (KP-N-YS): 695 nM | IC50 (D283 Med): 2560 nM | IC50 (NCI-H209): 1260 nM | IC50 (NCI-H1838): > 5.12 µM | IC50 (EW-3): 4230 nM | IC50 (SK-PN-DW): 669 nM | IC50 (TE-1): > 5120 nM | IC50 (NCI-H526): 957 nM | IC50 (TE-6): 2000 nM | IC50 (HEL): 548 nM | IC50 (MFH-ino): 1040 nM | IC50 (GI-1): 171 nM | IC50 (A388): 1940 nM | IC50 697: 373 nM | IC50 (KGN): 227 nM | IC50 (NMC-G1): 1100 nM | IC50 (KG-1): 482 nM | IC50 (MOLT-16): 733 nM | IC50 (LS-411N): 198 nM | IC50 (CGTH-W-1): 82.5 nM | IC50 (NCI-H1355): 875 nM | IC50 (COLO-684): 543 nM | IC50 (COR-L88): 2570 nM | IC50 (A4-Fuk): 972 nM | IC50 (J-RT3-T3-5): 689 nM | IC50 (NCI-H1648): 473 nM
